Converted amounts (≈) assume the structure as drawn.
What was measured:
Experiment in all cases: Bacterial susceptibility testing (MIC, broth microdilution)
Format in all cases: cell-based
[1] = tested on: P. aeruginosa PAO1; details: broth microdilution, cation adjusted Mueller-Hinton Broth, 35° C., 18-24 h; for MIC: Pseudomonas aeruginosa, PAO1, read-out: P. aeruginosa PAO1 MIC
Description: (§1) Minimal inhibitory concentrations (MIC) were determined by the broth microdilution method in accordance with the Clinical and Laboratory Standards Institute (CLSI) guidelines. In brief, organism suspensions were adjusted to a final inoculum between 3×10^5 and 7×10^5 colony-forming units (CFU)/mL. Drug dilutions and inocula were made in sterile, cation adjusted Mueller-Hinton Broth (Beckton Dickinson). In wells, an inoculum volume of 100 μL was mixed to 2 μL of DMSO with 2-fold serial dilutions of drug. All inoculated microdilution trays were incubated in ambient air at 35° C. for 18-24 h. Following incubation, the lowest concentration of the drug that prevented visible growth (OD600 nm<0.05) was recorded as the MIC. Performance of the assay was monitored by the use of laboratory quality -control strains and compounds with defined MIC spectrum, in accordance with CLSI guidelines.

[2] = tested on: E. coli ATCC25922; details: cation adjusted Mueller-Hinton Broth, 35° C., 18-24 h; for MIC: Escherichia coli, ATCC25922, broth microdilution, read-out: E. coli ATCC25922 MIC
Description: as §1

[3] = tested on: P. aeruginosa ATCC27853; details: cation adjusted Mueller-Hinton Broth, 35° C., 18-24 h; for MIC: Pseudomonas aeruginosa, ATCC27853, broth microdilution, read-out: P. aeruginosa ATCC27853 MIC
Description: as §1

[4] = tested on: K. pneumoniae ATCC13883; details: cation adjusted Mueller-Hinton Broth, 35° C., 18-24 h; for MIC: Klebsiella pneumoniae, ATCC13883, broth microdilution, read-out: K. pneumoniae ATCC13883 MIC
Description: as §1

## C[C@H](O)c1nccn1[C@@H](C#Cc1ccc(-c2ccc(O[C@@H]3COC[C@H]3O)cc2F)cc1)CO (racemic) [Compound 1, (rac-trans)-4-((2-fluoro-4′-((S)-4-hydroxy-3-(2-((S)-1-hydroxyethyl)-1H-imidazol-1-yl)but-1-yn-1-yl)-[1,1′-biphenyl]-4-yl)oxy)tetrahydrofuran-3-ol]
[1]
  MIC: 2 µg/mL (≈ 4.42 µM)
[2]
  MIC: 0.5 µg/mL (≈ 1.11 µM)
[3]
  MIC: 4 µg/mL (≈ 8.84 µM)
[4]
  MIC: 2 µg/mL (≈ 4.42 µM)

## C[C@H](O)c1nccn1[C@@H](C#Cc1ccc(-c2ccc(O[C@@H]3COC[C@H]3O)cc2F)cc1)CO (single isomer, unassigned) [Compound 3]
[1]
  MIC: 2 µg/mL (≈ 4.42 µM)
[2]
  MIC: 1 µg/mL (≈ 2.21 µM)
[3]
  MIC: 2 µg/mL (≈ 4.42 µM)
[4]
  MIC: 2 µg/mL (≈ 4.42 µM)

## C[C@H](O)c1nccn1[C@@H](C#Cc1ccc(-c2ccc(N3CCC3)cc2)cc1)CO [Compound 108, (S)-4-(4′-(azetidin-1-yl)-[1,1′-biphenyl]-4-yl)-2-(2-((S)-1-hydroxyethyl)-1H-imidazol-1-yl)but-3-yn-1-ol]
[1]
  MIC: > 32 µg/mL
[2]
  MIC: 0.38 µg/mL (≈ 0.981 µM)
[3]
  MIC: > 32 µg/mL
[4]
  MIC: > 32 µg/mL

## C[C@H](O)c1nccn1[C@@H](C#Cc1ccc(-c2ccc(O[C@@H]3COC[C@H]3O)c(Cl)c2)cc1)CO (single isomer, unassigned) [Compound 62]
[1]
  MIC: 16 µg/mL (≈ 34.1 µM)
[2]
  MIC: 4 µg/mL (≈ 8.53 µM)
[3]
  MIC: > 32 µg/mL
[4]
  MIC: 8 µg/mL (≈ 17.1 µM)

## CO[C@@H]1COC[C@H]1Oc1ccc(-c2ccc(C#C[C@@H](CO)n3ccnc3[C@H](C)O)cc2)cc1 (single isomer, unassigned) [Compound 125]
[1]
  P. aeruginosa PAO1 MIC: 2 µg/mL
[2]; broth microdilution
  E. coli ATCC25922 MIC: 1 µg/mL
[3]; broth microdilution
  P. aeruginosa ATCC27853 MIC: 8 µg/mL
[4]; broth microdilution
  K. pneumoniae ATCC13883 MIC: 2 µg/mL

## C[C@H](O)c1nccn1[C@@H](C#Cc1ccc(-c2ccc(O[C@@H]3CCOC[C@H]3O)cc2F)cc1)CO (racemic) [Compound 54, (rac-trans)-4-((2-fluoro-4′-((S)-4-hydroxy-3-(2-((S)-1-hydroxyethyl)-1H-imidazol-1-yl)but-1-yn-1-yl)-[1,1′-biphenyl]-4-yl)oxy)tetrahydro-2H-pyran-3-ol]
[1]
  MIC: 4 µg/mL (≈ 8.57 µM)
[2]
  MIC: 1 µg/mL (≈ 2.14 µM)
[3]
  MIC: 8 µg/mL (≈ 17.1 µM)
[4]
  MIC: 2 µg/mL (≈ 4.29 µM)

## C[C@H](O)c1nccn1[C@@H](C#Cc1ccc(-c2ccc(OC3COC3)cc2)cc1)CO (single isomer, unassigned) [Compound 107]
[1]
  MIC: 2 µg/mL (≈ 4.94 µM)
[2]
  MIC: 0.25 µg/mL (≈ 0.618 µM)
[3]
  MIC: 4 µg/mL (≈ 9.89 µM)
[4]
  MIC: 0.5 µg/mL (≈ 1.24 µM)

## CNC(=O)[C@H]1C[C@H](Oc2ccc(-c3ccc(C#C[C@@H](CO)n4ccnc4[C@H](C)O)cc3)cc2)C1 (racemic) [Compound 122, (rac-trans)-3-((4′-((S)-4-hydroxy-3-(2-((S)-1-hydroxyethyl)-1H-imidazol-1-yl)but-1-yn-1-yl)-[1,1′-biphenyl]-4-yl)oxy)-N-methylcyclobutane-1-carboxamide]
[1]
  MIC: 2 µg/mL (≈ 4.35 µM)
[2]
  MIC: 0.5 µg/mL (≈ 1.09 µM)
[3]
  MIC: 2 µg/mL (≈ 4.35 µM)
[4]
  MIC: 1 µg/mL (≈ 2.18 µM)

## CC(=O)N[C@H]1C[C@H](c2ccc(-c3ccc(C#C[C@@H](CO)n4ccnc4[C@H](C)O)cc3)cc2)C1 (racemic) [Compound 127, N-((rac-trans)-3-(4′-((S)-4-hydroxy-3-(2-((S)-1-hydroxyethyl)-1H-imidazol-1-yl)but-1-yn-1-yl)-[1,1′-biphenyl]-4-yl)cyclobutyl)acetamide]
[1]
  MIC: 1 µg/mL (≈ 2.25 µM)
[2]
  MIC: 0.25 µg/mL (≈ 0.564 µM)
[3]
  MIC: 1 µg/mL (≈ 2.25 µM)
[4]
  MIC: 1 µg/mL (≈ 2.25 µM)

## C[C@H](O)c1nccn1[C@@H](C#Cc1ccc(-c2ccc(O[C@H]3COC[C@]3(O)C(F)(F)F)cc2)cc1)CO (racemic) [Compound 119, (rac-cis)-4-((4′-((S)-4-hydroxy-3-(2-((S)-1-hydroxyethyl)-1H-imidazol-1-yl)but-1-yn-1-yl)-[1,1′-biphenyl]-4-yl)oxy)-3-(trifluoromethyl)tetrahydrofuran-3-ol]
[1]
  MIC: 8 µg/mL (≈ 15.9 µM)
[2]
  MIC: 4 µg/mL (≈ 7.96 µM)
[3]
  MIC: > 32 µg/mL
[4]
  MIC: 8 µg/mL (≈ 15.9 µM)

## C[C@H](O)c1nccn1[C@@H](C#Cc1ccc(-c2ccc3c(c2)CCN3)cc1)CO [Compound 85, (S)-2-(2-((S)-1-hydroxyethyl)-1H-imidazol-1-yl)-4-(4-(indolin-5-yl)phenyl)but-3-yn-1-ol]
[1]
  MIC: 16 µg/mL (≈ 42.8 µM)
[2]
  MIC: 1 µg/mL (≈ 2.68 µM)
[3]
  MIC: > 32 µg/mL
[4]
  MIC: 2 µg/mL (≈ 5.36 µM)

## C[C@H](O)c1ccc(-c2ccc(C#C[C@@H](CO)n3ccnc3[C@H](C)O)cc2)cc1 (single isomer, unassigned) [Compound 134]
[1]
  MIC: 4 µg/mL (≈ 10.6 µM)
[2]
  MIC: 1 µg/mL (≈ 2.66 µM)
[3]
  MIC: 8 µg/mL (≈ 21.3 µM)
[4]
  MIC: 8 µg/mL (≈ 21.3 µM)
